Measured values from EP3046573B1, “AMYLIN ANALOGUES” (Zealand Pharma A/S, priority 2013, dated 2015).
Like-named read-outs stand apart in the source and are kept apart here. Numbered stars: 1 amine (or outer) side, 2 acyl side, 3 side chain; on linkers, the order of the positions; unused ones are H or OH. Bridge positions count the residues as written; N and C are the ends. Square brackets hold non-standard residues; d marks the D form. Peptide text beside a SMILES is read from it. * marks the point of attachment. C20 diacid = O=C(O)CCCCCCCCCCCCCCCCCCC(=O)*; γGlu = O=C(O)[C@H](CCC(=O)[*:2])N[*:1]; Hyp = O=C(O)[C@@H]1C[C@@H](O)CN1; NMeI = CC[C@H](C)[C@H](NC)C(=O)O; Sar = CNCC(=O)O

What was measured:
[1] = biological target: T1, human amylin receptor 3 (hAMYR3) consisting of hCTR2 co-expressed with human Receptor Activity Modifying Protein 3 (hRAMP3) (Homo sapiens, UniProt O60896+P30988); assay: hAMYR3 assay: induction of cAMP (AlphaScreen cAMP Assay kit) in COS7 cells expressing hAMYR3; type: cell-based
T1 construct: expressed in transfected cells
T1 sequence (P30988 25-474): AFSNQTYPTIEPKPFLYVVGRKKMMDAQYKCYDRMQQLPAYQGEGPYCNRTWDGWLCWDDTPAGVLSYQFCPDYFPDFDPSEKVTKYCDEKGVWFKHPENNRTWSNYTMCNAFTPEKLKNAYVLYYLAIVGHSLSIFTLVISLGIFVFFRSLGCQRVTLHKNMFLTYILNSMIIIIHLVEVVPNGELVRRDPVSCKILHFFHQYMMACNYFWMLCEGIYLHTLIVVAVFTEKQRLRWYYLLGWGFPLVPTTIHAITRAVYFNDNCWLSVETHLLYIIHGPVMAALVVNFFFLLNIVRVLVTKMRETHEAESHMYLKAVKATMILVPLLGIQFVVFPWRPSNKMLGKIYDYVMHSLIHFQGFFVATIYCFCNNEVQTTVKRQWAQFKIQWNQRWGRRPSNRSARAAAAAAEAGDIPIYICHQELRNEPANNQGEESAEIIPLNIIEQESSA
T1 sequence (O60896 24-148 partner): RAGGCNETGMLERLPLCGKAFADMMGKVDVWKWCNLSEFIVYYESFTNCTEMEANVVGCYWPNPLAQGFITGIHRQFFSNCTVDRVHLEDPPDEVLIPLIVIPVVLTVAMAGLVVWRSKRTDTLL
Excerpt: The cell line COS7, originating from African Green Monkey kidney fibroblast cells, was used for establishment of the stable cell lines described below. The COS7 cellular background was used due to it being RAMP naive, and as such it provides the best available system for testing of the monomeric hCTR and different heterodimeric amylin receptor subtypes functionally generated by introduction of the individual RAMPs.
A cell line expressing the human amylin receptor 3 (hAMYR3) was generated in the COS7 cellular background as stable clones. In brief, hCTR2 (GI:4502547) and hRAMP3 (GI:118572586) were amplified by PCR using primers encoding terminal restriction sites for subcloning. The 5'-end primers additionally encoded a near Kozak consensus sequence to ensure efficient translation. The fidelity of the DNA encoding the receptor was confirmed by DNA sequencing. The PCR products encoding the receptor were subcloned into a proprietary tri-cistronic mammalian expression vector with RAMP3, hCTR2 and neomycin (G418) resistance marker. The mammalian expression vector encoding the receptor was transfected into COS7 cells by a standard liposome transfection method. 48 hours post-transfection, cells were seeded for limited dilution cloning and selected with 1 mg/ml G418 in the culture medium. After 3 weeks, surviving colonies of hAMY3R-expressing cells were picked, propagated and tested in the amylin efficacy assay as described in Example 3 below. The functional generation of the amylin receptor phenotype was verified in the efficacy assay by a left-shifted efficacy response to amylin relative to monomeric calcitonin receptor, and one hAMYR3-expressing clone was chosen for compound profiling.
In vitro activity of test peptides at the hCTR2 and hAMYR3 receptors was assessed by measuring the induction of cAMP following stimulation of the receptor by pramlintide or peptides of the invention using the AlphaScreen® cAMP Assay kit from Perkin-Elmer.
Briefly, COS7 cells expressing hCTR2 (see Example 2, above) were seeded at 30-40,000 cells per well in 96-well microtiter plates coated with 0.01 % poly-L-lysine, and grown for 1 day in culture in 100 µl growth medium [DMEM, 10% FCS, Penicillin (100 IU/ml), Streptomycin (100 µg/ml)]. On the day of analysis, growth medium was removed and the cells were washed once with 200 µl Tyrode buffer [Tyrode's Salts (9.6 g/l), 10 mM HEPES, pH 7.4]. Cells were incubated in 100 µl Tyrode buffer containing increasing concentrations of test peptides, 100 µM IBMX and 0.1% casein for 15 min at 37° C. The reaction was stopped by carefully decanting off the compound/buffer medium and replacing it with lysis/detection buffer (80 µl 0.1 % w/v BSA, 5 mM HEPES, 0.3 % v/v Tween-20 in deionized water). After incubation at room temperature for 10 min., the cAMP content of the resulting cell lysate was estimated according to the AlphaScreen® cAMP Assay manufacturer's instructions. EC50 values and relative efficacy values (in %) compared to reference peptide (Pramlintide) were estimated by computer-aided curve fitting using the 4-parameter logistic (4PL) non-linear model.
The in vitro activity results (expressed as EC50 values) for peptides of the invention and for Pramlintide (reference peptide) are summarized in Table 2, below.

[2] = biological target: T2, human calcitonin receptor (hCTR2) (Homo sapiens, UniProt P30988); assay: hCTR2 assay: induction of cAMP (AlphaScreen cAMP Assay kit) in COS7 cells expressing hCTR2; type: cell-based; details: cAMP induction in COS7 cells expressing hCTR2; average of a minimum of 3 determinations; read-out: hCTR2 EC50
T2 construct: expressed in transfected cells
T2 sequence (P30988 25-474): T1 sequence (P30988 25-474)
Method in brief: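 COS7 stable hCTR2 clone (RAMP-free); peptide dose-response 15 min 37° C in Tyrode pH 7.4 + 100 µM IBMX + 0.1% casein; lysis 10 min RT; AlphaScreen cAMP; 4PL fit.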

[3] = cAMP induction in COS7 cells expressing hAMYR3, average of a minimum of 3 determinations, read-out: hAMY R3 EC50

Structure (SMILES)	EC50 [1, 3]	EC50 [2]	EC50 [1]
CC[C@H](C)[C@@H](C(=O)N[C@@H](CC(C)C)C(=O)N[C@@H](CO)C(=O)N[C@@H](CO)C(=O)N[C@H](C(=O)N[C@@H](CCC(=O)O)C(=O)N[C@H](C(=O)NCC(=O)N[C@@H](CO)C(=O)N[C@@H](CCC(=O)O)C(=O)N[C@H](C(=O)N1CCC[C@H]1C(N)=O)[C@@H](C)O)C(C)C)[C@@H](C)O)N(C)C(=O)[C@H](C)NC(=O)CN(C)C(=O)[C@H](Cc1ccccc1)NC(=O)[C@H](CO)NC(=O)[C@H](CO)NC(=O)[C@H](CO)NC(=O)[C@H](CO)NC(=O)[C@H](CCCNC(=N)N)NC(=O)[C@H](Cc1c[nH]cn1)NC(=O)[C@H](CC(C)C)NC(=O)[C@H](Cc1ccccc1)NC(=O)[C@H](CCC(=O)O)NC(=O)[C@H](C)NC(=O)[C@H](CC(C)C)NC(=O)[C@H](CCCNC(=N)N)NC(=O)[C@H](CCC(N)=O)NC(=O)[C@@H](NC(=O)[C@H](C)NC(=O)[C@@H]1CSSC[C@H](NC(=O)[C@H](CCCNC(=N)N)NC(=O)CC[C@H](NC(=O)CCCCCCCCCCCCCCCCCCC(=O)O)C(=O)O)C(=O)N[C@@H](CCC(=O)O)C(=O)N[C@@H]([C@@H](C)O)C(=O)N[C@@H](C)C(=O)N[C@@H]([C@@H](C)O)C(=O)N1)[C@@H](C)O [Compound 128, [19CD]-isoGlu-RC()ETATC()ATQRLAEFLHRSSSSF-Gly(Me)-A-Ile(Me)-LSSTEVGSETP-NH2] ({C20 diacid-γGlu}-RCETATCATQRLAEFLHRSSSSF[Sar]A[NMeI]LSSTEVGSETP-NH2; disulfide 2-7)	0.45 nM	0.28 nM	
CC[C@H](C)[C@@H](C(=O)N[C@@H](CC(C)C)C(=O)N[C@@H](CO)C(=O)N[C@@H](CO)C(=O)N[C@H](C(=O)N[C@@H](CCC(=O)O)C(=O)N[C@H](C(=O)NCC(=O)N[C@@H](CO)C(=O)N[C@@H](CCC(=O)O)C(=O)N[C@H](C(=O)N1CCC[C@H]1C(N)=O)[C@@H](C)O)C(C)C)[C@@H](C)O)N(C)C(=O)[C@H](C)NC(=O)CN(C)C(=O)[C@H](Cc1ccccc1)NC(=O)[C@H](CO)NC(=O)[C@H](CO)NC(=O)[C@H](CO)NC(=O)[C@H](CO)NC(=O)[C@H](CCCNC(=N)N)NC(=O)[C@H](Cc1c[nH]cn1)NC(=O)[C@H](CC(C)C)NC(=O)[C@H](Cc1ccccc1)NC(=O)[C@H](CCC(=O)O)NC(=O)[C@H](C)NC(=O)[C@H](CC(C)C)NC(=O)[C@H](CCCNC(=N)N)NC(=O)[C@H](CO)NC(=O)[C@@H](NC(=O)[C@H](C)NC(=O)[C@@H]1CSSC[C@H](NC(=O)[C@H](CCCNC(=N)N)NC(=O)CC[C@H](NC(=O)CCCCCCCCCCCCCCCCCCC(=O)O)C(=O)O)C(=O)N2CCC[C@H]2C(=O)N[C@@H]([C@@H](C)O)C(=O)N[C@@H](C)C(=O)N[C@@H]([C@@H](C)O)C(=O)N1)[C@@H](C)O [Compound 140, [19CD]-isoGlu-RC()PTATC()ATSRLAEFLHRSSSSF-Gly(Me)-A-Ile(Me)-LSSTEVGSETP-NH2] ({C20 diacid-γGlu}-RCPTATCATSRLAEFLHRSSSSF[Sar]A[NMeI]LSSTEVGSETP-NH2; disulfide 2-7)		0.098 nM	0.18 nM
CC[C@H](C)[C@@H](C(=O)N[C@@H](CC(C)C)C(=O)N[C@@H](CO)C(=O)N[C@@H](CO)C(=O)N[C@H](C(=O)N[C@@H](CCC(=O)O)C(=O)N[C@H](C(=O)NCC(=O)N[C@@H](CO)C(=O)N[C@@H](CCC(=O)O)C(=O)N[C@H](C(=O)N1CCC[C@H]1C(N)=O)[C@@H](C)O)C(C)C)[C@@H](C)O)N(C)C(=O)[C@H](C)NC(=O)CN(C)C(=O)[C@H](Cc1ccccc1)NC(=O)[C@H](CO)NC(=O)[C@H](CO)NC(=O)[C@H](CO)NC(=O)[C@H](CO)NC(=O)[C@H](CCCNC(=N)N)NC(=O)[C@H](Cc1c[nH]cn1)NC(=O)[C@H](CC(C)C)NC(=O)[C@H](Cc1ccccc1)NC(=O)[C@H](CCC(=O)O)NC(=O)[C@H](C)NC(=O)[C@H](CC(C)C)NC(=O)[C@H](CCCNC(=N)N)NC(=O)[C@@H]1CCCN1C(=O)[C@@H](NC(=O)[C@H](C)NC(=O)[C@@H]1CSSC[C@H](NC(=O)[C@H](CCCNC(=N)N)NC(=O)CC[C@H](NC(=O)CCCCCCCCCCCCCCCCCCC(=O)O)C(=O)O)C(=O)N[C@@H](CC(N)=O)C(=O)N[C@@H]([C@@H](C)O)C(=O)N[C@@H](C)C(=O)N[C@@H]([C@@H](C)O)C(=O)N1)[C@@H](C)O [Compound 142, [19CD]-isoGlu-RC()NTATC()ATPRLAEFLHRSSSSF-Gly(Me)-A-Ile(Me)-LSSTEVGSETP-NH2] ({C20 diacid-γGlu}-RCNTATCATPRLAEFLHRSSSSF[Sar]A[NMeI]LSSTEVGSETP-NH2; disulfide 2-7)	0.29 nM	0.14 nM	
CC[C@H](C)[C@@H](C(=O)N[C@@H](CC(C)C)C(=O)N[C@@H](CO)C(=O)N[C@@H](CO)C(=O)N[C@H](C(=O)N[C@@H](CCC(=O)O)C(=O)N[C@H](C(=O)NCC(=O)N[C@@H](CO)C(=O)N[C@@H](CCC(=O)O)C(=O)N[C@H](C(=O)N1C[C@H](O)C[C@H]1C(N)=O)[C@@H](C)O)C(C)C)[C@@H](C)O)N(C)C(=O)[C@H](C)NC(=O)CN(C)C(=O)[C@H](Cc1ccccc1)NC(=O)[C@H](CO)NC(=O)[C@H](CO)NC(=O)[C@H](CCCNC(=N)N)NC(=O)[C@H](Cc1c[nH]cn1)NC(=O)[C@H](CC(C)C)NC(=O)[C@H](Cc1ccccc1)NC(=O)[C@H](CCC(=O)O)NC(=O)[C@H](C)NC(=O)[C@H](CC(C)C)NC(=O)[C@H](CCCNC(=N)N)NC(=O)[C@H](CCC(=O)O)NC(=O)[C@@H](NC(=O)[C@H](C)NC(=O)[C@@H]1CSSC[C@H](NC(=O)[C@H](Cc2c[nH]c3ccccc23)NC(=O)CC[C@H](NC(=O)CCCCCCCCCCCCCCCCCCC(=O)O)C(=O)O)C(=O)NCC(=O)N[C@@H]([C@@H](C)O)C(=O)N[C@@H](C)C(=O)N[C@@H]([C@@H](C)O)C(=O)N1)[C@@H](C)O [Compound 164, [19CD]-isoGlu-WC()GTATC()ATERLAEFLHRSSF-Gly(Me)-A-Ile(Me)-LSSTEVGSET-Hyp-NH2] ({C20 diacid-γGlu}-WCGTATCATERLAEFLHRSSF[Sar]A[NMeI]LSSTEVGSET[Hyp]-NH2; disulfide 2-7)	0.27 nM	0.1 nM	
